Among the data in the NIST ThermoML archive (doi:10.1021/je800754w) are activity coefficient values, retold here.

The nature of the data set: activity coefficient (dimensionless); of the first substance listed, at infinite dilution; xn = mol fraction of the nth substance listed. To be noted: Liquid, Chromatography, x1 = 0.

± gives the expanded uncertainty stated by the source.

Consider `C[N+](=O)[O-]` [nitromethane] + CCCCCCCCCCCCCC[P+](CCCCCC)(CCCCCC)CCCCCC.O=S(=O)([N-]S(=O)(=O)C(F)(F)F)C(F)(F)F, for which the activity coefficient was found to be 0.77 ± 0.05 (302.45 K), 0.64 ± 0.04 (322.35 K) and 0.58 ± 0.04 (342.45 K).
The corresponding values for `CC1CCCCC1` [methylcyclohexane] + CCCCCCCCCCCCCC[P+](CCCCCC)(CCCCCC)CCCCCC.O=S(=O)([N-]S(=O)(=O)C(F)(F)F)C(F)(F)F are 0.92 ± 0.06, 0.89 ± 0.06 and 0.86 ± 0.06.
For `CCCO` [propan-1-ol] + CCCCCCCCCCCCCC[P+](CCCCCC)(CCCCCC)CCCCCC.O=S(=O)([N-]S(=O)(=O)C(F)(F)F)C(F)(F)F, in that order: 1.53 ± 0.1, 1.21 ± 0.08 and 1 ± 0.06.
The corresponding values for `C=O` [methanal] + CCCCCCCCCCCCCC[P+](CCCCCC)(CCCCCC)CCCCCC.O=S(=O)([N-]S(=O)(=O)C(F)(F)F)C(F)(F)F are 0.06, 0.06 and 0.07 ± 0.03.
In the case of `C#CCCCC` [1-hexyne] + CCCCCCCCCCCCCC[P+](CCCCCC)(CCCCCC)CCCCCC.O=S(=O)([N-]S(=O)(=O)C(F)(F)F)C(F)(F)F, the activity coefficient (302.45 K) came out at 0.7 ± 0.1, the activity coefficient (322.35 K) worked out at 0.69 ± 0.05 and the activity coefficient (342.45 K) is 0.67 ± 0.05.
Consider `c1ccncc1` [pyridine] + CCCCCCCCCCCCCC[P+](CCCCCC)(CCCCCC)CCCCCC.O=S(=O)([N-]S(=O)(=O)C(F)(F)F)C(F)(F)F, for which the activity coefficient (302.45 K) is 0.52 ± 0.04, the activity coefficient (322.35 K) turned out to be 0.41 ± 0.03 and the activity coefficient (342.45 K) stood at 0.34 ± 0.03.
For the compound `C#CCCCCC` [1-heptyne] + CCCCCCCCCCCCCC[P+](CCCCCC)(CCCCCC)CCCCCC.O=S(=O)([N-]S(=O)(=O)C(F)(F)F)C(F)(F)F, the activity coefficient runs as follows: (302.45 K) 0.77 ± 0.05; (322.35 K) 0.78 ± 0.05; (342.45 K) 0.8 ± 0.05.
The corresponding values for `CCCCCCC` [heptane] + CCCCCCCCCCCCCC[P+](CCCCCC)(CCCCCC)CCCCCC.O=S(=O)([N-]S(=O)(=O)C(F)(F)F)C(F)(F)F are 1.27 ± 0.08, 1.22 ± 0.08 and 1.19 ± 0.08.
The corresponding values for `CCCCCCCC` [octane] + CCCCCCCCCCCCCC[P+](CCCCCC)(CCCCCC)CCCCCC.O=S(=O)([N-]S(=O)(=O)C(F)(F)F)C(F)(F)F are 1.48 ± 0.1, 1.42 ± 0.09 and 1.4 ± 0.1.
Turning to `CC(C)O` [propan-2-ol] + CCCCCCCCCCCCCC[P+](CCCCCC)(CCCCCC)CCCCCC.O=S(=O)([N-]S(=O)(=O)C(F)(F)F)C(F)(F)F, the activity coefficient by setting is: (322.35 K) 1.22 ± 0.08; (342.45 K) 0.99 ± 0.06.
Regarding `c1ccsc1` [thiophene] + CCCCCCCCCCCCCC[P+](CCCCCC)(CCCCCC)CCCCCC.O=S(=O)([N-]S(=O)(=O)C(F)(F)F)C(F)(F)F, the activity coefficient turned out to be 0.42 ± 0.04 (302.45 K), 0.4 ± 0.03 (322.35 K) and 0.38 ± 0.03 (342.45 K).
For `CCCC(C)=O` [pentan-2-one] + CCCCCCCCCCCCCC[P+](CCCCCC)(CCCCCC)CCCCCC.O=S(=O)([N-]S(=O)(=O)C(F)(F)F)C(F)(F)F, in that order: 0.31 ± 0.03, 0.32 ± 0.03 and 0.33 ± 0.03.
As for `CCO` [ethanol] + CCCCCCCCCCCCCC[P+](CCCCCC)(CCCCCC)CCCCCC.O=S(=O)([N-]S(=O)(=O)C(F)(F)F)C(F)(F)F, the activity coefficient was found to be 1.56 ± 0.1 (302.45 K), 1.23 ± 0.08 (322.35 K) and 1.01 ± 0.06 (342.45 K).
Consider `CC(C)CO` [2-methyl-1-propanol] + CCCCCCCCCCCCCC[P+](CCCCCC)(CCCCCC)CCCCCC.O=S(=O)([N-]S(=O)(=O)C(F)(F)F)C(F)(F)F, for which the activity coefficient stood at 1.49 ± 0.1 (302.45 K), 1.15 ± 0.07 (322.35 K) and 0.95 ± 0.06 (342.45 K).
For `CCCCCC` [hexane] + CCCCCCCCCCCCCC[P+](CCCCCC)(CCCCCC)CCCCCC.O=S(=O)([N-]S(=O)(=O)C(F)(F)F)C(F)(F)F, in that order: 1.09 ± 0.07, 1.04 ± 0.07 and 1.01 ± 0.06.
As for `CCCCCCCCCC` [decane] + CCCCCCCCCCCCCC[P+](CCCCCC)(CCCCCC)CCCCCC.O=S(=O)([N-]S(=O)(=O)C(F)(F)F)C(F)(F)F, the activity coefficient is, setting by setting: (302.45 K) 1.97 ± 0.13; (322.35 K) 1.89 ± 0.13; (342.45 K) 1.84 ± 0.12.
For `CCC(C)=O` [butanone] + CCCCCCCCCCCCCC[P+](CCCCCC)(CCCCCC)CCCCCC.O=S(=O)([N-]S(=O)(=O)C(F)(F)F)C(F)(F)F, the activity coefficient was determined as 0.28 ± 0.03 (302.45 K), 0.27 ± 0.03 (322.35 K) and 0.23 ± 0.03 (342.45 K).
For `C=CCCCC` [hex-1-ene] + CCCCCCCCCCCCCC[P+](CCCCCC)(CCCCCC)CCCCCC.O=S(=O)([N-]S(=O)(=O)C(F)(F)F)C(F)(F)F, in that order: 0.91 ± 0.06, 0.87 ± 0.06 and 0.85 ± 0.05.
The corresponding values for `CCOCC` [diethyl ether] + CCCCCCCCCCCCCC[P+](CCCCCC)(CCCCCC)CCCCCC.O=S(=O)([N-]S(=O)(=O)C(F)(F)F)C(F)(F)F are 0.62 ± 0.04, 0.59 ± 0.04 and 0.57 ± 0.04.
The corresponding values for `CC1CCCC1` [methylcyclopentane] + CCCCCCCCCCCCCC[P+](CCCCCC)(CCCCCC)CCCCCC.O=S(=O)([N-]S(=O)(=O)C(F)(F)F)C(F)(F)F are 0.85 ± 0.05, 0.8 ± 0.1 and 0.77 ± 0.05.
Turning to `CCC(C)CC` [3-methylpentane] + CCCCCCCCCCCCCC[P+](CCCCCC)(CCCCCC)CCCCCC.O=S(=O)([N-]S(=O)(=O)C(F)(F)F)C(F)(F)F, the activity coefficient came to 1.04 ± 0.07 (302.45 K), 0.98 ± 0.06 (322.35 K) and 0.94 ± 0.06 (342.45 K).
For `CCC=O` [propanal] + CCCCCCCCCCCCCC[P+](CCCCCC)(CCCCCC)CCCCCC.O=S(=O)([N-]S(=O)(=O)C(F)(F)F)C(F)(F)F, in that order: 0.35 ± 0.03, 0.33 ± 0.03 and 0.31 ± 0.03.
For the compound `ClC(Cl)(Cl)Cl` [tetrachloromethane] + CCCCCCCCCCCCCC[P+](CCCCCC)(CCCCCC)CCCCCC.O=S(=O)([N-]S(=O)(=O)C(F)(F)F)C(F)(F)F, the activity coefficient (302.45 K) stood at 0.55 ± 0.04, the activity coefficient (322.35 K) amounted to 0.55 ± 0.04 and the activity coefficient (342.45 K) came to 0.55 ± 0.04.
Take `CCC[N+](=O)[O-]` [1-nitropropane] + CCCCCCCCCCCCCC[P+](CCCCCC)(CCCCCC)CCCCCC.O=S(=O)([N-]S(=O)(=O)C(F)(F)F)C(F)(F)F: the activity coefficient (302.45 K) is 2.19 ± 0.15, the activity coefficient (322.35 K) came out at 1.62 ± 0.11 and the activity coefficient (342.45 K) worked out at 1.35 ± 0.09.
The corresponding values for `ClCCl` [dichloromethane] + CCCCCCCCCCCCCC[P+](CCCCCC)(CCCCCC)CCCCCC.O=S(=O)([N-]S(=O)(=O)C(F)(F)F)C(F)(F)F are 0.23 ± 0.03, 0.25 ± 0.03 and 0.27 ± 0.03.
On to `CC(C)OC(C)C` [diisopropyl ether] + CCCCCCCCCCCCCC[P+](CCCCCC)(CCCCCC)CCCCCC.O=S(=O)([N-]S(=O)(=O)C(F)(F)F)C(F)(F)F, for which the activity coefficient is 0.93 ± 0.06 (302.45 K), 0.9 ± 0.06 (322.35 K) and 0.87 ± 0.06 (342.45 K).
As for `C1CCCCC1` [cyclohexane] + CCCCCCCCCCCCCC[P+](CCCCCC)(CCCCCC)CCCCCC.O=S(=O)([N-]S(=O)(=O)C(F)(F)F)C(F)(F)F, the activity coefficient was determined as 0.83 ± 0.05 (302.45 K), 0.78 ± 0.05 (322.35 K) and 0.75 ± 0.05 (342.45 K).
For `CCCCO` [butan-1-ol] + CCCCCCCCCCCCCC[P+](CCCCCC)(CCCCCC)CCCCCC.O=S(=O)([N-]S(=O)(=O)C(F)(F)F)C(F)(F)F, in that order: 1.62 ± 0.11, 1.26 ± 0.08 and 1.04 ± 0.07.
For `CCCCCCCCC` [nonane] + CCCCCCCCCCCCCC[P+](CCCCCC)(CCCCCC)CCCCCC.O=S(=O)([N-]S(=O)(=O)C(F)(F)F)C(F)(F)F, the activity coefficient by setting is: (302.45 K) 1.87 ± 0.13; (322.35 K) 1.8 ± 0.1; (342.45 K) 1.74 ± 0.12.
The corresponding values for `C1CCCCCC1` [cycloheptane] + CCCCCCCCCCCCCC[P+](CCCCCC)(CCCCCC)CCCCCC.O=S(=O)([N-]S(=O)(=O)C(F)(F)F)C(F)(F)F are 0.83 ± 0.05, 1.81 ± 0.12 and 3.59 ± 0.24.
For `c1ccccc1` [benzene] + CCCCCCCCCCCCCC[P+](CCCCCC)(CCCCCC)CCCCCC.O=S(=O)([N-]S(=O)(=O)C(F)(F)F)C(F)(F)F, in that order: 0.39 ± 0.03, 0.39 ± 0.03 and 0.39 ± 0.03.
The corresponding values for `ClC(Cl)Cl` [trichloromethane] + CCCCCCCCCCCCCC[P+](CCCCCC)(CCCCCC)CCCCCC.O=S(=O)([N-]S(=O)(=O)C(F)(F)F)C(F)(F)F are 0.29 ± 0.03, 0.31 ± 0.03 and 0.32 ± 0.03.
`Cc1ccccc1` [toluene] + CCCCCCCCCCCCCC[P+](CCCCCC)(CCCCCC)CCCCCC.O=S(=O)([N-]S(=O)(=O)C(F)(F)F)C(F)(F)F: the activity coefficient is, setting by setting: (302.45 K) 0.46 ± 0.04; (322.35 K) 0.46 ± 0.04; (342.45 K) 0.47 ± 0.04.
`C1COCCO1` [1,4-dioxane] + CCCCCCCCCCCCCC[P+](CCCCCC)(CCCCCC)CCCCCC.O=S(=O)([N-]S(=O)(=O)C(F)(F)F)C(F)(F)F: the activity coefficient (302.45 K) is 0.51 ± 0.04, the activity coefficient (322.35 K) amounted to 0.49 ± 0.04 and the activity coefficient (342.45 K) was 0.48 ± 0.04.
The corresponding values for `CCCCCCCCCCC` [undecane] + CCCCCCCCCCCCCC[P+](CCCCCC)(CCCCCC)CCCCCC.O=S(=O)([N-]S(=O)(=O)C(F)(F)F)C(F)(F)F are 2.32 ± 0.16, 2.18 ± 0.15 and 2.1 ± 0.2.
